BindingDB's records for doi:10.1124/jpet.301.2.661 (University of Arkansas, 2002)
Values joined by “and” are separate entries in the source; they are usually repeats but may differ in a detail not shown here. Equal values may be shown once. Square brackets hold non-standard residues; d marks the D form. Peptide text beside a SMILES is read from it. * marks the point of attachment. Tyr(Nα,Nα-allyl2) = C=CCN(CC=C)[C@@H](Cc1ccc(O)cc1)C(=O)*; Tic = O=C(O)[C@@H]1Cc2ccccc2CN1; Aib = CC(C)(N)C(=O)O

Target: Delta-type opioid receptor (Homo sapiens, UniProt P41143)
Sequence (P41143 whole entry): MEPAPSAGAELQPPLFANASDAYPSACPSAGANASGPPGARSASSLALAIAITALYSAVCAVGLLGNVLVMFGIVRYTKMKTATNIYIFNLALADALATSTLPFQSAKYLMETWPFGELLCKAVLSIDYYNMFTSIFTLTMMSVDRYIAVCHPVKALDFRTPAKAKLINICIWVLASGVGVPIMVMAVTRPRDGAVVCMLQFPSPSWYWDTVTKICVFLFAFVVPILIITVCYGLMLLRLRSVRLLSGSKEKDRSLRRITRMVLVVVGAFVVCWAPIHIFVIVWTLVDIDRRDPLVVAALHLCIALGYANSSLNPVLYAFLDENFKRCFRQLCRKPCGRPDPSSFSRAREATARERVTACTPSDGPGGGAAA

Row | Compound | Ki
1 | N[C@@H](Cc1ccc(O)cc1)C(=O)N1Cc2ccccc2C[C@H]1C(=O)N[C@@H](Cc1ccccc1)C(=O)N[C@@H](Cc1ccccc1)C(=O)O [TIPP] (H-Y[Tic]FF-OH) | 5.8 nM and 3.02 nM
2 | C=CCN(CC=C)[C@@H](Cc1ccc(O)cc1)C(=O)NC(C)(C)C(=O)NC(C)(C)C(=O)N[C@@H](Cc1ccccc1)C(=O)N[C@@H](CC(C)C)C(=O)O [NSC_107691] ({Tyr(Nα,Nα-allyl2)}-[Aib][Aib]FL-OH) | 304 nM
